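Protocol summary: plate cells (96-well), add compound at 5 concentrations, incubate 48 h, interpolate endpoints linearly. GI50 = concentration required for 50% inhibition of growth.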 The source made the active and inactive calls. Rule as the data show it: active = GI50 up to about 1.1 µM and inactive = higher.
Tests used:
Assay in all cases: DTP human tumour cell line panel, 48 h
[1] = system: CCRF-CEM
[2] = system: UO-31
[3] = system: NCI/ADR-RES
[4] = system: KM-20L2
[5] = system: A549
[6] = system: Hs-578T
[7] = system: MCF7
[8] = system: SK-MEL-2
[9] = system: HCC 2998
[10] = system: U-251
[11] = system: K562
[12] = system: M14
[13] = system: RXF 393
[14] = system: SW-620
[15] = system: LXFL 529
[16] = system: SNB-78
[17] = system: SK-MEL-28
[18] = system: ACHN
[19] = system: COLO 205
[20] = system: DMS-114
[21] = system: HOP-18
[22] = system: EKVX
[23] = system: NCI-H522
[24] = system: SF-268
[25] = system: DLD-1
[26] = system: SF-539
[27] = system: OVCAR-8
[28] = system: SNB-19
[29] = system: TK-10
[30] = system: T47D
[31] = system: HCT-15
[32] = system: KM12
[33] = system: BT-549
[34] = system: NCI-H226
[35] = system: RPMI-8226
[36] = system: DU-145
[37] = system: SF-295
[38] = system: OVCAR-4
[39] = system: MDA-N
[40] = system: SK-MEL-5
[41] = system: MDA-MB-231
[42] = system: XF498
[43] = system: IGROV-1
[44] = system: HT-29
[45] = system: M19-MEL
[46] = system: RXF 631
[47] = system: OVCAR-5
[48] = system: LOX IMVI
[49] = system: PC-3
[50] = system: Malme-3M
[51] = system: NCI-H460
[52] = system: MDA-MB-435
[53] = system: SR
[54] = system: HOP-62
[55] = system: DMS-273
[56] = system: SN12C
[57] = system: OVCAR-3
[58] = system: NCI-H23
[59] = system: SK-OV-3
[60] = system: HCT-116
[61] = system: UACC-62
[62] = system: SNB-75
[63] = system: HL-60
[64] = system: A498
[65] = system: HOP-92
[66] = system: CAKI-1
[67] = system: 786-0
[68] = system: UACC-257

Measured: GI50

C=C(C)C(=O)/N=C(\N)NC#N
44.6 µM: [31]
inactive: [1] 23.7 µM | [2] > 62.7 µM | [3] 35.9 µM | [4] 105 µM | [5] 168 µM | [6] 161 µM | [7] 47.5 µM | [8] 47.2 µM | [9] 132 µM | [10] > 76.9 µM | [11] 21.8 µM | [12] 45.3 µM | [13] 36.6 µM | [14] 19.3 µM | [15] 63.4 µM | [16] 48.3 µM | [17] 28.9 µM | [18] 138 µM | [19] 49.2 µM | [20] 30.5 µM | [21] > 41.8 µM | [22] > 54 µM | [23] 5.81 µM | [24] 27.1 µM | [25] 68.9 µM | [26] 34.8 µM | [27] 31.4 µM | [28] 182 µM | [29] 41.7 µM | [30] 14.3 µM | [32] 59 µM | [33] 14.8 µM | [34] 145 µM | [35] 10.6 µM | [36] 70.5 µM | [37] > 90.2 µM | [38] 19.9 µM | [39] 39.4 µM | [40] 75.2 µM | [41] 48.2 µM | [42] 41.8 µM | [43] > 46.9 µM | [44] 62.8 µM | [45] 23.6 µM | [46] > 100 µM | [47] 168 µM | [48] 33 µM | [49] 158 µM | [50] 24.8 µM | [51] > 75 µM | [52] 131 µM | [53] 28.1 µM | [54] > 63.1 µM | [55] 44 µM | [56] 36.4 µM | [57] 68.7 µM | [58] 72.3 µM | [59] 170 µM | [60] 31.6 µM | [61] 34.7 µM | [62] 67.9 µM | [63] 20 µM | [64] > 46.5 µM | [65] 14.2 µM | [66] 24.4 µM | [67] 37.8 µM | [68] 29.9 µM

Source: ChEMBL document CHEMBL1201862, “PubChem BioAssay data set” (2004)
